Target: recombinant human PKR enzyme (Homo sapiens (Human), UniProt P30613)
Assay: Pyruvate kinase (PKR) activity experiment
Assay type: biochemical
Conditions: activation of recombinant human PKR enzyme
Experimental: • 1). A recombinant human PKR enzyme solution was formulated at a concentration of 60 ng/well (a 20 μL reaction system), and 5 μL of the solution was added into each well of a black transparent bottom 384-well plate. • 2). Compound solutions were formulated at different concentrations, with the final concentrations of 1000/300/100 nM (containing 1% DMSO). Each 5 μL of the compound solution was added into the plate in item 3.1 and mixed well. The plate was incubated at room temperature for 10 min. • 3). A reaction system was formulated according to the instructions of a kit (as shown in the table below), and 10 μL of the reaction system was added into each well of the 384-well plate, and mixed uniformly with the solution in item 3.2.
• 4). The 384-well plate was placed on a microplate reader to detect the fluorescence value at 540/590 nm, where the value was read every 2 minutes and the detection was conducted continuously for 1 hour. • 5). The Slope value within the detection time was calculated, and the 0.1% DMSO well was used as a control well to calculate a compound activation rate.
[formula] • 6). Fitting dose-effect curve
With the log value of the compound concentration as the X axis and the percentage activation rate as the Y axis, a dose-effect curve was fitted with the log(agonist) vs. response-variable slope of the analysis software GraphPad Prism 5, and the AC50 value of the activity of each compound against PKR was obtained.

Chain of recombinant human PKR enzyme (P30613 whole entry): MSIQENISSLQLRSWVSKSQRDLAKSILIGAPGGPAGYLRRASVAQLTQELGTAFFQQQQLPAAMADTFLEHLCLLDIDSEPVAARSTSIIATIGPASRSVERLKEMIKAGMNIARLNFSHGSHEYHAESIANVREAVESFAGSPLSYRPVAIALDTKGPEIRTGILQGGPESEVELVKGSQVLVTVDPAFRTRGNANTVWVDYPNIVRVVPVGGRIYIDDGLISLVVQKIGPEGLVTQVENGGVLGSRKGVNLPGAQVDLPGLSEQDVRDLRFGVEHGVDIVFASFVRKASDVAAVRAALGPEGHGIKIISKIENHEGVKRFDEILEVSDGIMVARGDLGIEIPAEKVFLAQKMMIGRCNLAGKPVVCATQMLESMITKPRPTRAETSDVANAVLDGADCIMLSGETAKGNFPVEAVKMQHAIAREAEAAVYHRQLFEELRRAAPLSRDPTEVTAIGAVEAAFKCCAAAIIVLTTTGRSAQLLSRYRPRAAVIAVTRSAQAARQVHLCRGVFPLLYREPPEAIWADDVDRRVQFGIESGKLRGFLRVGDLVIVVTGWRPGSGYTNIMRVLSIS

AC50	SMILES
101 to 300 nM	O=C(C(CO)c1cccnc1)N1CC(=C2CN(S(=O)(=O)c3ccc4ncsc4c3)C2)C1 (stereo not shown) [Compound 48, 1-(1′-(benzo[d]thiazol-6-ylsulfonyl)-1′,4′-dihydro-2H,2′H-[3,3′-diazetidinylidene]-1(4H)-yl)-3-hydroxy-2-(pyridin-3-yl)propan-1-one]
< 100 nM	O=C([C@H](CO)c1ccccc1)N1CC(=C2CN(S(=O)(=O)c3ccc4c(n3)OCCO4)C2)C1 [Compound 49, (S)-1-(1′-((2,3-dihydro-[1,4]dioxino[2,3-b]pyridin-6-yl)sulfonyl)-1′,4′-dihydro-2H,2′H-[3,3′-diazetidinylidene]-1(4H)-yl)-3-hydroxy-2-phenylpropan-1-one]
300 to 1000 nM	O=C([C@@H](CO)c1ccc(F)cc1)N1CC(=C2CN(S(=O)(=O)c3ccc4ncsc4c3)C2)C1 [Compound 51, (R)-1-(1′-(benzo[d]thiazol-6-ylsulfonyl)-1′,4′-dihydro-2H,2′H-[3,3′-diazetidinylidene]-1(4H)-yl)-2-(4-fluorophenyl)-3-hydroxypropan-1-one]
< 100 nM	O=C([C@H](CO)c1ccc(F)cc1)N1CC(=C2CN(S(=O)(=O)c3ccccn3)C2)C1 [Compound 54, (S)-2-(4-fluorophenyl)-3-hydroxy-1-(1′-(pyridin-2-ylsulfonyl)-1′,4′-dihydro-2H,2′H-[3,3′-diazetidinylidene]-1(4H)-yl)propan-1-one]
300 to 1000 nM	O=C([C@@H](CO)c1ccc(F)cc1)N1CC(=C2CN(S(=O)(=O)c3ccccn3)C2)C1 [Compound 55, (R)-2-(4-fluorophenyl)-3-hydroxy-1-(1′-(pyridin-2-ylsulfonyl)-1′,4′-dihydro-2H,2′H-[3,3′-diazetidinylidene]-1(4H)-yl)propan-1-one]
101 to 300 nM	O=C(C(CO)c1ccc(F)c(Cl)c1)N1CC(=C2CN(S(=O)(=O)c3ccccn3)C2)C1 (stereo not shown) [Compound 59, 2-(3-chloro-4-fluorophenyl)-3-hydroxy-1-(1′-(pyridin-2-ylsulfonyl)-1′,4′-dihydro-2H,2′H-[3,3′-diazetidinylidene]-1(4H)-yl)propan-1-one]
300 to 1000 nM	O=C(C(CO)c1ccc(F)c(F)c1)N1CC(=C2CN(S(=O)(=O)c3ccccn3)C2)C1 (stereo not shown) [Compound 61, 2-(3,4-difluorophenyl)-3-hydroxy-1-(1′-(pyridin-2-ylsulfonyl)-1′,4′-dihydro-2H,2′H-[3,3′-diazetidinylidene]-1(4H)-yl)propan-1-one]
101 to 300 nM	Cn1cnc2ccc(S(=O)(=O)N3CC(=C4CN(C(=O)[C@H](CO)c5ccccc5)C4)C3)cc21 [Compound 63, (S)-3-hydroxy-1-(1′-((1-methyl-1H-benzimidazol-6-yl)sulfonyl)-1′,4′-dihydro-2H,2′H-[3,3′-diazetidinylidene]-1(4H)-yl)-2-phenylpropan-1-one]
101 to 300 nM	N#Cc1ccc(S(=O)(=O)N2CC(=C3CN(C(=O)[C@H](CO)c4ccccc4)C3)C2)cc1 [Compound 65, (S)-4-(1′-(3-hydroxy-2-phenylpropionyl)-1′,4′-dihydro-2H,2′H-[3,3′-diazetidinylidene]-1(4H)-ylsulfonyl)benzonitrile]
101 to 300 nM	O=C([C@H](CO)c1ccccc1)N1CC(=C2CN(S(=O)(=O)c3ccc(Cl)cn3)C2)C1 [Compound 66]
< 100 nM	COc1ccc(S(=O)(=O)N2CC(=C3CN(C(=O)[C@H](CO)c4ccccc4)C3)C2)nc1 [Compound 67, (S)-3-hydroxy-1-(1′-((5-methoxypyridin-2-yl)sulfonyl)-1′,4′-dihydro-2H,2′H-[3,3′-diazetidinylidene]-1(4H)-yl)-2-phenylpropan-1-one]
300 to 1000 nM	O=C([C@H](CO)c1ccccc1)N1CC(=C2CN(S(=O)(=O)c3cccnc3)C2)C1 [Compound 68, (S)-3-hydroxy-2-phenyl-1-(1′-(pyridin-3-ylsulfonyl)-1′,4′-dihydro-2H,2′H-[3,3′-diazetidinylidene]-1(4H)-yl)propane-1-one]
< 100 nM	O=C([C@H](CO)c1ccccc1)N1CC(=C2CN(S(=O)(=O)c3cccc4cccnc34)C2)C1 [Compound 69, (S)-3-hydroxy-2-phenyl-1-(1′-(quinolin-8-ylsulfonyl)-1′,4′-dihydro-2H,2′H-[3,3′-diazetidinylidene]-1(4H)-yl)propan-1-one]
300 to 1000 nM	N#Cc1ccc(S(=O)(=O)N2CC(=C3CN(C(=O)[C@H](CO)c4ccccc4)C3)C2)nc1 [Compound 70, (S)-6-((1′-(3-hydroxy-2-phenylpropionyl)-1′,4′-dihydro-2H,2′H-[3,3′-diazetidinylidene]-1(4H)-yl)sulfonyl)nicotinonitrile]
< 100 nM	O=C(C(CO)c1ccc(C(F)F)cc1)N1CC(=C2CN(S(=O)(=O)c3ccccn3)C2)C1 (stereo not shown) [Compound 71, 2-(4-(difluoromethyl)phenyl)-3-hydroxy-1-(1′-(pyridin-2-ylsulfonyl)-1′,4′-dihydro-2H,2′H-[3,3′-diazetidinylidene]-1(4H)-yl)propan-1-one]
< 100 nM	CCOc1ccc(S(=O)(=O)N2CC(=C3CN(C(=O)[C@H](CO)c4ccccc4)C3)C2)nc1 [Compound 72, (S)-1-(1′-((5-ethoxypyridin-2-yl)sulfonyl)-1′,4′-dihydro-2H,2′H-[3,3′-diazetidinylidene]-1(4H)-yl)-3-hydroxy-2-phenylpropan-1-one]
101 to 300 nM	O=C(C(CO)c1ccc(Cl)cc1)N1CC(=C2CN(S(=O)(=O)c3ccccn3)C2)C1 (stereo not shown) [Compound 75, 2-(4-chlorophenyl)-3-hydroxy-1-(1′-(pyridin-2-ylsulfonyl)-1′,4′-dihydro-2H,2′H-[3,3′-diazetidinylidene]-1(4H)-yl)propan-1-one]
300 to 1000 nM	O=C([C@@H](CO)c1ccc(F)c(Cl)c1)N1CC(=C2CN(S(=O)(=O)c3ccccn3)C2)C1 [Compound 76, (R)-2-(3-chloro-4-fluorophenyl)-3-hydroxy-1-(1′-(pyridin-2-ylsulfonyl)-1′,4′-dihydro-2H,2′H-[3,3′-diazetidinylidene]-1(4H)-yl)propan-1-one]
< 100 nM	O=C([C@H](CO)c1ccc(F)c(Cl)c1)N1CC(=C2CN(S(=O)(=O)c3ccccn3)C2)C1 [Compound 77, (S)-2-(3-chloro-4-fluorophenyl)-3-hydroxy-1-(1′-(pyridin-2-ylsulfonyl)-1′,4′-dihydro-2H,2′H-[3,3′-diazetidinylidene]-1(4H)-yl)propan-1-one]
< 100 nM	O=C([C@H](CO)c1ccccc1)N1CC(=C2CN(S(=O)(=O)c3ccc(OC(F)F)cn3)C2)C1 [Compound 80, (S)-1-(1′-((5-(difluoromethoxy)pyridin-2-yl)sulfonyl)-1′,4′-dihydro-2H,2′H-[3,3′-diazetidinylidene]-1(4H)-yl)-3-hydroxy-2-phenylpropan-1-one]
101 to 300 nM	CC(C)Oc1ccc(S(=O)(=O)N2CC(=C3CN(C(=O)[C@H](CO)c4ccccc4)C3)C2)nc1 [Compound 81, (S)-3-hydroxy-1-(1′-((5-isopropoxypyridin-2-yl)sulfonyl)-1′,4′-dihydro-2H,2′H-[3,3′-diazetidinylidene]-1(4H)-yl)-2-phenylpropan-1-one]
< 100 nM	O=C([C@H](CO)c1ccccc1)N1CC(=C2CN(S(=O)(=O)c3ccc(OC4CC4)cn3)C2)C1 [Compound 82, (S)-1-(1′-((5-cyclopropoxypyridin-2-yl)sulfonyl)-1′,4′-dihydro-2H,2′H-[3,3′-diazetidinylidene]-1(4H)-yl)-3-hydroxy-2-phenylpropan-1-one]
< 100 nM	O=C([C@H](CO)c1ccc(F)cc1F)N1CC(=C2CN(S(=O)(=O)c3ccccn3)C2)C1 [Compound 83, (S)-2-(2,4-difluorophenyl)-3-hydroxy-1-(1′-(pyridin-2-ylsulfonyl)-1′,4′-dihydro-2H,2′H-[3,3′-diazetidinylidene]-1(4H)-yl)propan-1-one]
300 to 1000 nM	O=C([C@@H](CO)c1ccc(F)cc1F)N1CC(=C2CN(S(=O)(=O)c3ccccn3)C2)C1 [Compound 84, (R)-2-(2,4-difluorophenyl)-3-hydroxy-1-(1′-(pyridin-2-ylsulfonyl)-1′,4′-dihydro-2H,2′H-[3,3′-diazetidinylidene]-1(4H)-yl)propan-1-one]
300 to 1000 nM	N#Cc1ccc(C(CO)C(=O)N2CC(=C3CN(S(=O)(=O)c4ccccn4)C3)C2)cc1 (stereo not shown) [Compound 85, 4-(3-hydroxy-1-oxo-1-(1′-(pyridin-2-ylsulfonyl)-1′,4′-dihydro-2H,2′H-[3,3′-diazetidinylidene]-1(4H)-yl)propan-2-yl)benzonitrile]
300 to 1000 nM	O=C(C(CO)c1cc(F)cc(Cl)c1)N1CC(=C2CN(S(=O)(=O)c3ccccn3)C2)C1 (stereo not shown) [Compound 86, 2-(3-chloro-5-fluorophenyl)-3-hydroxy-1-(1′-(pyridin-2-ylsulfonyl)-1′,4′-dihydro-2H,2′H-[3,3′-diazetidinylidene]-1(4H)-yl)propan-1-one]
< 100 nM	COc1ccc(S(=O)(=O)N2CC(=C3CN(C(=O)[C@H](CO)c4ccc(F)cc4F)C3)C2)nc1 [Compound 87, (S)-2-(2,4-difluorophenyl)-3-hydroxy-1-(1′-((5-methoxypyridin-2-yl)sulfonyl)-1′,4′-dihydro-2H,2′H-[3,3′-diazetidinylidene]-1(4H)-yl)propan-1-one]
300 to 1000 nM	COc1ccc(S(=O)(=O)N2CC(=C3CN(C(=O)[C@@H](CO)c4ccc(F)cc4F)C3)C2)nc1 [Compound 88, (R)-2-(2,4-difluorophenyl)-3-hydroxy-1-(1′-((5-methoxypyridin-2-yl)sulfonyl)-1′,4′-dihydro-2H,2′H-[3,3′-diazetidinylidene]-1(4H)-yl)propan-1-one]
